# Measured values published in patent US12440451B2, “Compositions and methods using an epigenetic inhibitor” (DANA-FARBER CANCER INSTITUTE, INC., priority 2017, dated 2025).
# Legend:
# Assay type in all cases: cell-based, mouse
# [1] = tested on: OT-I+ CD8+ T cells; experiment: APC-free T cell activation with anti-CD3 and anti-CD28 antibodies, flow cytometry; settings: anti-CD3 and anti-CD28 or BMDC+SIINFEKL activation; 7 days; relative to DMSO
# Source text: It was important to determine whether the observed effect of RGFP966 on CD8^+ T cells post-activation was due to the drug acting on T cells, on the antigen-presenting cells, or both. To do so, the effect of RGFP966 treatment on CD8^+ T cells activated was compared in parallel using either antigen-pulsed BMDCs or antibodies against CD3 and CD28. The latter method of activating T cells is free of APCs and allowed determination of whether the effect of RGFP966 required the presence of APCs.
# 96-well tissue culture plates were coated with 10 μg/ml α-CD3 antibodies overnight at 4° C., then washed with PBS prior to addition of OT-I^+ CD8^+ T cells (2×10^5/well) and α-CD28 antibody (2 μg/ml) (labeled as anti-CD3 and anti-CD28). OT-I^+ CD8^+ T cells from the same batch of cells were also activated in parallel on antigen-loaded BMDCs (labeled as BMDC+SIINFEKL (SEQ ID NO: 1)) were prepared as described above. T cells were activated for 7 days, with media changes on days 3 and 5, then collected for flow cytometry phenotype analysis.
# [2] = tested on: OT-I+ CD8+ T cells; experiment: in vitro CD8+ T cell activation assay with SIINFEKL-pulsed BMDCs, flow cytometry for effector markers
# Source text: To screen for compounds that may inhibit epigenetic enzymes, an in vitro model of T cell activation by antigen-loaded antigen presenting cells (APCs) was used. CD8^+ T cells were harvested from OT-I T cell receptor transgenic mice. OT-I mice are transgenic for the mouse Tera-V2 and Torb-V5 genes, which form a T cell receptor that recognizes the SIINFEKL peptide (SEQ ID NO: 1) epitope of chicken ovalbumin presented in the context of the Kb MHC I molecule. This allows testing of T cell activation in response to addition of SIINFEKL peptide (SEQ ID NO: 1). The APCs used for T cell activation were bone marrow-derived dendritic cells (BMDCs) harvested from congenic H-2b-MHC haplotype C57BL/6 (B6) mice.
# To set up the screen, BMDCs were harvested, irradiated, and seeded into 96-well tissue culture plates (5×10^4/well) in the presence of 200 nM SIINFEKL peptide (SEQ ID NO: 1) for antigen loading. OT-I^+ CD8^+ T cells were freshly isolated from peripheral lymphoid organs of OT-I mice and added to the BMDCs in 96-well plates (5×10^4/well). One hundred epigenetic inhibitor drugs from a custom library provided by Dr. David Fisher (Massachusetts General Hospital, Boston, MA) were added separately to individual wells for a final concentration of 10 μM or 1 μM. Negative (non-drug treated) wells were given an equivalent volume of DMSO vehicle.
# The OT-I^+ CD8^+ T cells were cultured for 10 days at 37° C., with media changes at days 3, 5, and 7. After 10 days, T cells were collected from the 96-well plates and analyzed by flow cytometry for markers of cell viability, effector differentiation, cytokine secretion, and cytotoxicity.
# For each marker assessed, a change of greater than two standard deviations from the mean of the negative control wells was deemed a significant change.
# To validate the phenotypic changes observed with RGFP966 treatment during the screen, the in vitro activation assay was repeated to compare T cells treated with RGFP966 with vehicle-treated control cells. OT-I^+ CD8^+ T cells were activated with SIINFEKL-pulsed BMDCs as in Example 1 for 7 days, with media changes at days 3 and 5. T cells were then collected and analyzed by flow cytometry for markers of effector differentiation (CD25, PD-1), cytokine secretion (IFN-γ, TNF-α, IL-2), and cytotoxicity (granzyme B).
# An additional study was done on the effects of RGFP966 on T cell expression of phenotypic markers of CD8^+ effector differentiation. T cells were treated with RGFP966 and vehicle using the in vitro activation assay and flow cytometry techniques described above. OT-I^+ CD8^+ T cells were activated with SIINFEKL-pulsed BMDCs (see above) for 7 days, with media changes at days 3 and 5. T cells were collected and analyzed by flow cytometry for markers of effector differentiation (CD25, PD-1), cytokine secretion (IFN-γ, TNF-α, IL-2), and cytotoxicity (granzyme B).
# OT-I^+ CD8^+ T cells were activated with antigen-pulsed BMDCs as described above, and dosed with RGFP966 for different durations of time as depicted in the schematic diagram of FIG. 7A: dose duration A of RGFP966 exposure was from day 0 to day 7 of co-culture: dose duration B of RGFP966 exposure was from day 3 to day 7 of co-culture: dose duration C of RGFP966 exposure was from day 5 to day 7 of co-culture: dose duration D of RGFP966 exposure was from day 0 to day 3 of co-culture: dose duration E of RGFP966 exposure was from day 0 to day 5 of co-culture. These time windows (dose durations A-E) correspond roughly to the early (day 0 to 3), mid-(day 3 to 5), and late (day 5 to 7) phases of T cell activation described in the literature.
# T cells were thoroughly washed with culture media during media changes at a transition point (i.e. drug to no drug or vice versa). T cells in samples D and E (light gray arrows) were re-suspended in conditioned media from parallel cultures of DMSO vehicle-treated T cells in order to maintain similar levels of T cell activating cytokines in the media. […]
# [3] = tested on: OT-I+ CD8+ T cells; experiment: immunoblot time course of sorted CD8+ T cells after activation; settings: 3 μM
# Method: Analysis was first made on expression of HDAC3 and its known binding partners, global histone acetylation levels, and known regulatory transcription factors of CD8^+ T cell effector function across a time course of T cell activation in the absence or presence of the HDAC3 inhibitor RGFP966.
# To do so, OT-I^+ CD8^+ T cells were activated in vitro for 7 days, as described in FIG. 1 and Example 1 above. Activated cells received either 0 μM or 3 μM of HDAC3 inhibitor RGF966. Sorted CD8^+ T cells from the in vitro co-cultures were then assessed for HDAC3 and various markers by immunoblot at 2, 22, 72, 120, and 168 hours after activation (see immunoblot of FIG. 9A). The markers assessed included: NCOR1 and NCOR2 (part of the HDAC3/NCOR complex): BCL-6, T-BET, and BLIMP-1 (markers of the BCL-6-5-bet pathway): GAPDH and LAMIN BI (protein loading controls): acetylated residues H3K9 and H3K27, and histone H3 (markers of histone H3 acetylation).
# [4] = 10 μM, 7 days activation, relative to DMSO-treated cells
smiles,measurement,setting,value
Nc1cc(F)ccc1NC(=O)/C=C/c1cnn(C/C=C/c2ccccc2)c1 [RGFP966],"T cell effector phenotype (CD25, granzyme B, IFN-γ, TNF-α, IL-2)",[1],augmented their T cell effector phenotype across both methods of T cell activation
same,TNF-α expression measured in pg/mL,"[2]; 10 μM compared with 1 μM or vehicle, FIG. 2J",increased expression of the activation marker TNF-α
same,CD25 expression,[2]; [4],higher levels
same,IFN-γ expression,[2]; [4],higher levels
same,IL-2 expression,[2]; [4],higher levels
same,PD-1 expression,[2]; [4],higher levels
same,TNF-α expression,[2]; [4],higher levels
same,granzyme B expression,[2]; [4],more of the cytotoxic effector protein granzyme B
same,expression of CD25 and TNF-α when the drug is washed out midway,"[2]; 10 μM, exposure day 0 to 3 or day 0 to 5, relative to all 7 days",did not reduce the expression of CD25 and TNF-α
same,"expression of markers of T cell activation (CD25, TNF-α) when dosing starts at later time points","[2]; 10 μM, exposure from day 3 or day 5 to day 7",reduce the expression of markers of T cell activation
same,expression of CD44 and CD62L,"[2]; 10 μM, flow cytometry, FIG. 2A, vs vehicle",high expression of CD62L and intermediate to high expression of CD44
same,CD107a positive cells,"[2]; 10 μM, flow cytometry, FIG. 2B, vs vehicle",many more CD107a positive cells than the vehicle controls
same,TNF-α positive cells,"[2]; 10 μM, flow cytometry, FIG. 2C, vs untreated",larger number of TNF-α positive cells than the untreated T cells
same,effector phenotype of CD8+ T cells in the secondary screen,"[2]; 10 μM, screen of HDAC inhibitors",consistently augmented the effector phenotype
same,dose sufficient to augment the effector phenotype of CD8+ T cells,"[2]; in vitro activation, titration 0, 1, 3, 5 μM",3 µM
same,dose at which the dose-dependent augmentation of the T cell effector phenotype begins,"[2]; titration 0, 1, 3, 5 μM, 7 days",greater than 1 μM
same,percentage of actively proliferating cells measured by Ki-67 expression,"[2]; with increasing drug dose, titration 0, 1, 3, 5 μM",reduction in the percentage of actively proliferating cells
same,levels of BCL-6,[3],no significant changes
same,levels of BLIMP-1 (PRDM1),[3],no significant changes
same,global histone acetylation at H3K9,[3]; after 72 hours post-activation,persistently high after 72 hours
same,HDAC3 protein level,[3]; immunoblot 2-168 hours,does not result in loss of HDAC3 protein
same,expression of T-BET (TBX21),[3]; relative to control-treated cells,increased in the drug-treated cells relative to control-treated cells
same,NCOR2 level,[3]; starting at 120 hours post-activation,almost completely absent
